# Experimental data from ChEMBL document CHEMBL4476882, “Inhibitors of nedd8-activating enzyme” (2013).
# pIC50: −log10 of the molar value. Activity calls are given as the source filed them. No cut-off for these calls is given here.
# Tests used:
# [1] = biological target: T1, NEDD8 activating enzyme (Homo sapiens, UniProt Q8TBC4); assay: Inhibition of recombinant human NAE using GST-tagged Ubc12 and Flag-tagged Nedd8 incubated for 105 mins by HTRF assay; format: protein-complex assay
# T1 sequence (Q8TBC4 whole entry): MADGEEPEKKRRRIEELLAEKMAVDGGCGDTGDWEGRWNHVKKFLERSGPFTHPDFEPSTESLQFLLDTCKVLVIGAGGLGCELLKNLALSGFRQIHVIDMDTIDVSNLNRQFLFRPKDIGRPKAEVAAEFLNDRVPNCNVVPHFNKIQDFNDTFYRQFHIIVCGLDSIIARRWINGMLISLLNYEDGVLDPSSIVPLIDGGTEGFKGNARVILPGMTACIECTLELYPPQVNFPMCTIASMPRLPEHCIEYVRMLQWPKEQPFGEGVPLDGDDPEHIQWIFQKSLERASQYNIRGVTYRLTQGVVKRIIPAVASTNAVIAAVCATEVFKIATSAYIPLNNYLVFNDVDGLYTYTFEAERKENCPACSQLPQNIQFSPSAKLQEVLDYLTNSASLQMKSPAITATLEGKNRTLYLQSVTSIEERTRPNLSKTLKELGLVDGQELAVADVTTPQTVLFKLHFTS
# T1 sequence (Q13564 whole entry): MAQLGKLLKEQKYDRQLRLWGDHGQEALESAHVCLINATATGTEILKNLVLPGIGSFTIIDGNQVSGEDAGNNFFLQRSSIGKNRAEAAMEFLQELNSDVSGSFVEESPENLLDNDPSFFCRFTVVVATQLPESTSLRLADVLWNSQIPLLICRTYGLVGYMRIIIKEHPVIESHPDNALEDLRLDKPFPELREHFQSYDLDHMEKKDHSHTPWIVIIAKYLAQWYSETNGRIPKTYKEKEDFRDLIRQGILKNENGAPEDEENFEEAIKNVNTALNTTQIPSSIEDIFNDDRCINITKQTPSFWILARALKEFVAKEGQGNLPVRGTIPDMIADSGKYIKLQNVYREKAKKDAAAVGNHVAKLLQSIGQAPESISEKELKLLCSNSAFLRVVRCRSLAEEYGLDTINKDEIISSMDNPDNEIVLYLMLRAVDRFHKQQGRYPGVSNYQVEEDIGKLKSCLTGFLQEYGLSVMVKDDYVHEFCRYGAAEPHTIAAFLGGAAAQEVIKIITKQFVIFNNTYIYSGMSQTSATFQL
# [2] = tested on: Mus musculus; assay: Inhibition of NAE in female Ncr nude mouse bearing HCT116 tumor xenografts assessed as increase in Nedd8-Cullin levels at 30 mg/kg, sc dosed as single administration measured up to 24 hrs post dose; format: functional, organism-based
# [3] = AUC (last) in plasma of female Ncr nude mouse bearing HCT116 tumor xenografts at 30 mg/kg, sc dosed as single administration measured up to 24 hrs post dose; format: ADME, organism-based; design: dose 30 mg/kg, time 0 - last, route subcutaneous
# [4] = Cmax in plasma of female Ncr nude mouse bearing HCT116 tumor xenografts at 30 mg/kg, sc dosed as single administration measured up to 24 hrs post dose; format: ADME, organism-based; design: dose 30 mg/kg, route subcutaneous
# [5] = tested on: Mus musculus; assay: Inhibition of NAE in female Ncr nude mouse bearing HCT116 tumor xenografts assessed as increase in Nedd8-Cullin levels at 10 mg/kg, sc dosed as single administration measured up to 24 hrs post dose; format: functional, organism-based
# [6] = AUC (last) in plasma of female Ncr nude mouse bearing HCT116 tumor xenografts at 10 mg/kg, sc dosed as single administration measured up to 24 hrs post dose; format: ADME, organism-based; design: dose 10 mg/kg, time 0 - last, route subcutaneous
# [7] = Cmax in plasma of female Ncr nude mouse bearing HCT116 tumor xenografts at 10 mg/kg, sc dosed as single administration measured up to 24 hrs post dose; format: ADME, organism-based; design: dose 10 mg/kg, route subcutaneous
structure (smiles),measurement,setting,value
CN(C)C(=O)[C@H]1Cc2ccccc2[C@H]1Nc1cc(O[C@@H]2C[C@@H](COS(N)(=O)=O)[C@@H](O)C2)ncn1,pIC50,[1],5.00 to 6.30
COc1cccc(-c2nc3c(N[C@@H]4C[C@@H](COS(N)(=O)=O)[C@@H](O)C4)ncnc3[nH]2)c1OC,pIC50,[1],≥ 6.30
NS(=O)(=O)OC[C@@H]1C[C@@H](Oc2cc(N[C@H]3CCc4ccccc43)ncn2)C[C@@H]1O,pIC50,[1],< 5.00
"CO[C@H]1Cc2cc(Cl)ccc2C1Nc1cc(O[C@@H]2CC(COS(N)(=O)=O)[C@@H](O)C2)ncn1 (single isomer, unassigned)",inhibition,[2],Active
same,AUC(0-t) at 24 h,[3],54.8 µM·h
same,Cmax,[4],24.2 µM
same,inhibition,[5],Active
same,AUC(0-t) at 24 h,[6],24.5 µM·h
same,Cmax,[7],10.4 µM
NS(=O)(=O)OC[C@H]1C[C@@H](Nc2ncnc(N[C@H]3CCc4ccccc43)n2)[C@H](O)[C@@H]1O,pIC50,[1],≥ 6.30
NS(=O)(=O)OC[C@@H]1C[C@@H](Nc2ncnc3[nH]c(-c4ccc(Cl)cc4)nc23)C[C@@H]1O,pIC50,[1],≥ 6.30
CO[C@H]1Cc2ccccc2[C@H]1Nc1cc(O[C@@H]2C[C@@H](COS(N)(=O)=O)[C@@H](O)C2)ncn1,inhibition,[2],Active
same,AUC(0-t) at 24 h,[3],26.3 µM·h
same,Cmax,[4],27.1 µM
COc1ccccc1-c1nc2c(N[C@@H]3C[C@@H](COS(N)(=O)=O)[C@@H](O)C3)ncnc2[nH]1,pIC50,[1],≥ 6.30
Cc1c(N[C@H]2CCc3ccccc32)ncnc1O[C@@H]1C[C@@H](COS(N)(=O)=O)[C@@H](O)C1,pIC50,[1],≥ 6.30
"CO[C@H]1CCc2ccccc2C1Nc1cc(O[C@H]2CC(O)[C@H](COS(N)(=O)=O)C2)ncn1 (single isomer, unassigned)",pIC50,[1],≥ 6.30
